Assay results as given in EP3620052A1, “USE OF PHENOXYPYRIDINYL-SUBSTITUTED (1H-1,2,4-TRIAZOL-1-YL)ALCOHOLS FOR CONTROLLING FUNGICIDAL DISEASES IN MAIZE” (Bayer Aktiengesellschaft, priority 2018, dated 2020).

What was measured:
Assay type in all cases: in vivo
[1] = test system: maize; test: Field trials in Brazilian maize: crop response (phytotoxicity) after foliar spray; conditions: 125 g a.i./ha, two foliar applications, Brazil field trials, assessed 14 - 28 days after second application, 5 trials
Description: (§1) In 2017/2018 five field trials in maize were conducted in order to study the effect of compounds of formula (I) and standard azole-type fungicides regarding disease control against leaf diseases and crop safety.
(§2) The trials were done under practical field conditions in Brazil in the Safrinha season with the commercially available maize varieties P30F53 Pioneer, P30F53 RR - Roundup Ready® Pioneer, P30F53YHV Pioneer, DKB 390 Dekalb® and DKB 390 IPRO3 Dekalb®.
(§3) These trials were conducted in the following federal states in Brazil: Goias, Mato Grosso, Minas Gerais, Parana and Sao Paulo.
(§4) The tested compounds / reference products, their respective formulation type and rates of application [g a.i./ha] Tab.1: Products, formulations and rates.
(§5) The products were sprayed twice in sequential, foliar applications at growth stages BBCH EC 39 - 55 and BBCH EC 51 - 69 with a spray interval of about 2 weeks with backpack or bicycle applicators.
(§6) The water quantity for the applications was 150 l / ha.
(§7) About 14 - 28 days after the second application crop response and disease control were assessed visually by rating the damaged leaves or plant parts.

[2] = test system: Cercospora zeae maydis; test: Field trials in Brazilian maize: disease control (Abbott efficacy) after foliar spray; conditions: 125 g a.i./ha, two foliar applications, Brazil, 2 trials; untreated control 40 % disease severity
Description: as §1, §2, §3, §4, §5, §6, §7
(§8) The efficacy against the pathogens listed in table 2 was calculated according to Abbott's formula: Efficacy (%) = (X−Y)/X × 100, [formula] wherein X is the disease severity in the control and Y is the disease severity in the treatment, and is shown in table 2 [%].

[3] = test system: Helminthosporium spp.; test: as above; conditions: 125 g a.i./ha, two foliar applications, Brazil, 3 trials; untreated control 22 % disease severity
Description: as §1, §2, §3, §4, §5, §6, §7, §8

[4] = test system: Phaeosphaeria maydis; test: as above; conditions: 125 g a.i./ha, two foliar applications, Brazil, 3 trials; untreated control 44 % disease severity
Description: as §1, §2, §3, §4, §5, §6, §7, §8

[5] = test system: Puccinia polysora; test: as above; conditions: 125 g a.i./ha, two foliar applications, Brazil, 1 trial; untreated control 73 % disease severity
Description: as §1, §2, §3, §4, §5, §6, §7, §8

[6] = test system: Puccinia sorghi; test: as above; conditions: 125 g a.i./ha, two foliar applications, Brazil, 2 trials; untreated control 20 % disease severity
Description: as §1, §2, §3, §4, §5, §6, §7, §8

[7] = test system: maize; test: Field trials in Brazilian maize: yield relative to untreated control; conditions: 125 g a.i./ha, two foliar applications, Brazil, 3 trials; untreated control (43 dt/ha) = 100%
Description: as §1, §2, §3, §4, §5, §6
The yield of the untreated control (43 dt/ha) is set to 100% and the yield values for the other treatments are given in percent thereof. Tab. 2: Impact of foliar applications of tested compounds on crop response, disease control and yield.

[8] = test system: maize; test: Field trials in North American maize: crop response (phytotoxicity) after foliar spray; conditions: for PTX (%): one foliar application BBCH EC 63 - 65, Canada/USA, 3 trials
[9] = test system: Cochliobolus heterostrophus; test: Field trials in North American maize: disease control (Abbott efficacy) after foliar spray; conditions: one foliar application, 1 trial, untreated control 12 % disease severity
Description: (§9) In 2018 eight field trials in maize were conducted in order to study the effect of compounds of formula (I) and standard azole-type fungicides regarding disease control against leaf diseases.
(§10) The trials were done under practical field conditions in Canada and the USA with the commercially available maize varieties DKC 62-08 Dekalb®, DKC 35-88 RIB RR2 BT Dekalb®, P7958 AM RR2 LL BT (Marc Hutlet Seeds Ltd.), NK1120-3122 RR+GLU+ECB+CRW (Syngenta), P9608AM LL RR2 CRW ECB (Pioneer) and Golden Bantam (conventional variety available from various companies worldwide).
(§11) These trials were conducted in the following provinces in Canada and federal states in North America: Ontario (Canada) and Georgia, Indiana, Iowa, Michigan, Ohio (all USA).
(§12) The tested compounds / reference products, their respective formulation type and rates of application [g a.i./ha] Tab.3: Products, formulations and rates.
(§13) In table 4 details of the formulations of (1-02) used in the different trials are listed. Tab.4: Formulations of (1-02) and a tank mixed surfactant used in different trials.
(§14) The products were sprayed with one foliar application at growth stage BBCH EC 63 - 65 with a high clearance sprayer or a backpack applicator.
(§15) The water quantity for the applications varied from 150 to 300 l/ha.
(§16) About 23 - 35 days after application the disease control was assessed visually by rating the damaged leaves or plant parts.
(§17) The efficacy against the pathogens listed in table 5 was calculated according to Abbott's formula: Efficacy (%) = (X−Y)/X × 100, [formula] wherein X is the disease severity in the control and Y is the disease severity in the treatment, and is shown in table 5 [%].

[10] = test system: Kabatiella zeae; test: as above; conditions: one foliar application, 1 trial, untreated control 17 % disease severity
Description: as §9, §10, §11, §12, §13, §14, §15, §16, §17

[11] = test system: Setosphaeria turcica; test: as above; conditions: one foliar application, 2 trials, untreated control 18 % disease severity
Description: as §9, §10, §11, §12, §13, §14, §15, §16, §17

[12] = test system: maize; test: Field trials in North American maize: yield relative to untreated control; conditions: for Yield (% of Control): one foliar application, 2 trials, untreated control (112 dt/ha) = 100%
Description: as §9, §10, §11, §12, §13, §14, §15
The yield of the untreated control (112 dt/ha) is set to 100% and the yield values for the other treatments are given in percent thereof Tab. 5: Impact of foliar applications of tested compounds on disease control.

[13] = Canada/USA field trials, 60 -125 g a.i./ha

CC(O)(Cn1cncn1)c1ccc(Oc2ccc(Cl)cc2)nc1C(F)(F)F (centres unmarked) [(I-01), 2-[6-(4-chlorophenoxy)-2-(trifluoromethyl)-3-pyridyl]-1-(1,2,4-triazol-1-yl)propan-2-ol]
PTX (%) [1]: 0% | Cercospora zeae maydis (% efficacy) [2]: 61% | Helminthosporium spp. (% efficacy) [3]: 65% | Phaeosphaeria maydis (% efficacy) [4]: 68% | Puccinia polysora (% efficacy) [5]: 76% | Puccinia sorghi (% efficacy) [6]: 71% | Yield (% of Control) [7]: 123 % of Control

CC(O)(Cn1cncn1)c1ccc(Oc2ccc(Br)cc2)nc1C(F)(F)F (centres unmarked) [(I-02), 2-[6-(4-bromophenoxy)-2-(trifluoromethyl)-3-pyridyl]-1-(1,2,4-triazol-1-yl)propan-2-ol]
PTX (%) [1]: 0% | Cercospora zeae maydis (% efficacy) [2]: 70% | Helminthosporium spp. (% efficacy) [3]: 63% | Phaeosphaeria maydis (% efficacy) [4]: 64% | Puccinia polysora (% efficacy) [5]: 74% | Puccinia sorghi (% efficacy) [6]: 68% | Yield (% of Control) [7]: 112 % of Control | PTX (%) ([8]; 60 g a.i./ha (100 EC or 250 SC)): 0% | PTX (%) ([8]; 125 g a.i./ha (100 EC or 250 SC)): 0% | crop safety (conclusion in words) [8, 13]: completely safe on the crop | Cochliobolus heterostrophus (% efficacy) ([9]; 60 g a.i./ha): 91% | Cochliobolus heterostrophus (% efficacy) ([9]; 125 g a.i./ha): 97% | Kabatiella zeae (% efficacy) ([10]; 60 g a.i./ha): 89% | Kabatiella zeae (% efficacy) ([10]; 125 g a.i./ha): 95% | Setosphaeria turcica (% efficacy) ([11]; 60 g a.i./ha): 57% | Setosphaeria turcica (% efficacy) ([11]; 125 g a.i./ha): 61% | Yield (% of Control) ([12]; 60 g a.i./ha): 120 % of Control | Yield (% of Control) ([12]; 125 g a.i./ha): 115 % of Control | impact on yield (conclusion in words) [12, 13]: positive impact on yield
